Measurements published in patent EP0804408B1, “NOVEL 4-SUBSTITUTED 2,6-DI-TERT-BUTYLPHENOL COMPOUNDS, PHARMACEUTICAL COMPOSITIONS CONTAINING SAME AND PREPARATION METHOD THEREFOR” (priority 1994, dated 1996).

Test system: VIH-1/LAI
Assay: Inactivation of HIV-1: infectious titre before/after treatment, titrated on MT4 cells (p24 antigen ELISA, day +10)
Assay type: cell-based
Text: Afin d'évaluer l'efficacité d'AVF1, il a été procédé à la comparaison des titres infectieux de suspensions virales avant et après traitement par trois concentrations de AVF1 pendant trois temps de contact. A partir des résultats expérimentaux, il a été défini pour chaque concentration et chaque temps de contact testés, un facteur de […] du titre infectieux du VIH-1. Ce facteur de réduction exprimé en log 10 correspond au rapport du titre infectieux du virus non traité et du titre infectieux du virus traité par AVF1.
L'étude a été réalisée en deux étapes : • Traitement du VIH-1/LAI par trois concentrations d'AVF1 pendant 5, 30 et 60 minutes. • Evaluation des titres infectieux des échantillons obtenus avant et après traitement par AVF1 sur cellules MT4.
Le virus a été dilué au 1/10ème dans chacune des solutions de AVF1 (solution diluée à 2%, 1%, et 0,5%).
Le virus a été maintenu dans chacune de ces solutions pendant 5 minutes, 30 minutes et 60 minutes, à température ambiante puis immédiatement dilué en tampon NTE. Après dilution en tampn NTE, les échantillons ont été ultracentrifugés afin d'éliminer AVF1 et éviter ainsi sa toxicité sur les cellules MT4 utilisées pour le titrage du virus. Cette étape d'ultracentrifugation permet aussi de concentrer les particules virales résiduelles. Après centrifugation, chaque culot a été repris dans 1 ml de milieu de culture, filtré sur un filtre de 0,45 µm aliquoté et stocké à -80°C.
La même expérience a été réalisée deux fois.
La méthode de titrage du VIH-1 sur cellules MT4 est basée sur la détection d'une production virale par les cellules inoculées maintenues 10 jours en culture, mesurée par le dosage de l'antigène p24 VIH-1 dans le surnageant de culture.
Brièvement, les cellules MT4 sont inoculées avec des dilutions en série de virus non traité (contrôle positif) ou avec les échantillons expérimentaux (virus traités par AVF1).
Le VIH infecte les cellules, se multiplie, puis est libéré dans le surnageant de culture par bourgeonnement à la surface de la cellule. Afin de détecter la présence du virus, les surnageants de culture sont récupérés tous les 3 ou 4 jours et testés au jour +10 après l'infection quant à la présence de l'antigène p24 VIH-1.
La détection de l'antigène p24 VIH-1 est réalisée à l'aide d'une technique ELISA sandwich mettant en oeuvre la trousse ELAVIA AgI commercialisée par Diagnostic Pasteur, qui permet la détection de 50 pg d'antigène p24 par millilitre de surnageant.
Le principe de cette méthode est brièvement le suivant : l'antigène p24 libéré après la lyse des particules virales présentes dans le surnageant est complexé à des anticorps anti-VIH-1 immobilisés dans les puits des microplaques. L'antigène est alors révélé par anticorps polyclonaux anti-VIH-1 biotinylés, reconnus eux-mêmes par un conjugué streptavidine péroxydase. La présence de ce complexe est révélée par une réaction enzymatique après addition du substrat (H2O2) et du chromogène (OPD). Le produit de cette réaction est coloré et peut donc être détecté par mesure de la densité optique à 492 nm. La quantité de produit formé au cours de la réaction enzymatique est directement proportionnelle à la quantité d'antigène présente dans l'échantillon testé.
Les échantillons à tester ont été dilués ou non dans du milieu de culture. 1 ml d'échantillon non dilué, et 0,4 ml des dilutions suivantes ont été inoculés sur un culot de 1,2 10^6 cellules MT4. Après l'adsoption virale pendant 1 heure à 37°C, l'innoculum viral a été éliminé et les cellules lavées 3 fois en milieu de culture. Les cellules ont alors été resuspendues dans 4 ml de milieu de culture, distribuées dans 4 puits de plaque 24 puits et incubées à 37°C en présence de 5% de CO2.
Tous les 3 ou 4 jours, les surnageants de culture contenus dans chaque puits ont été prélevés et stockés à -80°C puis testés quant à la présence d'antigène p24 VIH-1.
Le titre infectieux est exprimé en "tissue Culture Infectious Dose 50" par millilitre d'échantillon (TCID 50/ml). […]

[1] = AVF1 0,5%, 5 minutes, 1ère expérience
[2] = AVF1 0,5%, 5 minutes, 2ème expérience
[3] = AVF1 0,5%, 30 minutes, 1ère expérience
[4] = AVF1 0,5%, 30 minutes, 2ème expérience
[5] = AVF1 0,5%, 60 minutes, 1ère expérience
[6] = AVF1 0,5%, 60 minutes, 2ème expérience
[7] = AVF1 1%, 5 minutes, 1ère expérience
[8] = AVF1 1%, 5 minutes, 2ème expérience
[9] = AVF1 1%, 30 minutes, 1ère expérience
[10] = AVF1 1%, 30 minutes, 2ème expérience
[11] = AVF1 1%, 60 minutes, 1ère expérience
[12] = AVF1 1%, 60 minutes, 2ème expérience
[13] = AVF1 2%, 5 minutes, 1ère expérience
[14] = AVF1 2%, 5 minutes, 2ème expérience
[15] = AVF1 2%, 30 minutes, 1ère expérience
[16] = AVF1 2%, 30 minutes, 2ème expérience
[17] = AVF1 2%, 60 minutes, 1ère expérience
[18] = AVF1 2%, 60 minutes, 2ème expérience

CC(C)(C)c1cc(C(=O)OCCOCCOCCOCCOCCOCCOCCOCCO)cc(C(C)(C)C)c1O [AVF1, 3,5-di-t-butyl-4-hydroxybenzoate d'octaoxyéthylèneglycol]
Facteur de réduction Log TCID50/ml [1]: > 6,9 Log TCID50/ml
Titre TCID 50/ml [1]: < 4 TCID 50/ml
Facteur de réduction Log TCID50/ml [2]: > 6,9 Log TCID50/ml
Titre TCID 50/ml [2]: < 4 TCID 50/ml
Facteur de réduction Log TCID50/ml [3]: > 6,9 Log TCID50/ml
Titre TCID 50/ml [3]: < 4 TCID 50/ml
Facteur de réduction Log TCID50/ml [4]: > 6,9 Log TCID50/ml
Titre TCID 50/ml [4]: < 4 TCID 50/ml
Facteur de réduction Log TCID50/ml [5]: > 6,9 Log TCID50/ml
Titre TCID 50/ml [5]: < 4 TCID 50/ml
Facteur de réduction Log TCID50/ml [6]: > 6,9 Log TCID50/ml
Titre TCID 50/ml [6]: < 4 TCID 50/ml
Facteur de réduction Log TCID50/ml [7]: > 6,9 Log TCID50/ml
Titre TCID 50/ml [7]: < 4 TCID 50/ml
Facteur de réduction Log TCID50/ml [8]: > 6,9 Log TCID50/ml
Titre TCID 50/ml [8]: < 4 TCID 50/ml
Facteur de réduction Log TCID50/ml [9]: > 6,9 Log TCID50/ml
Titre TCID 50/ml [9]: < 4 TCID 50/ml
Facteur de réduction Log TCID50/ml [10]: > 6,9 Log TCID50/ml
Titre TCID 50/ml [10]: < 4 TCID 50/ml
Facteur de réduction Log TCID50/ml [11]: > 6,9 Log TCID50/ml
Titre TCID 50/ml [11]: < 4 TCID 50/ml
Facteur de réduction Log TCID50/ml [12]: > 6,9 Log TCID50/ml
Titre TCID 50/ml [12]: < 4 TCID 50/ml
Facteur de réduction Log TCID50/ml [13]: > 6,9 Log TCID50/ml
Titre TCID 50/ml [13]: < 4 TCID 50/ml
Facteur de réduction Log TCID50/ml [14]: > 6,9 Log TCID50/ml
Titre TCID 50/ml [14]: < 4 TCID 50/ml
Facteur de réduction Log TCID50/ml [15]: > 6,9 Log TCID50/ml
Titre TCID 50/ml [15]: < 4 TCID 50/ml
Facteur de réduction Log TCID50/ml [16]: > 6,9 Log TCID50/ml
Titre TCID 50/ml [16]: < 4 TCID 50/ml
Facteur de réduction Log TCID50/ml [17]: > 6,9 Log TCID50/ml
Titre TCID 50/ml [17]: < 4 TCID 50/ml
Facteur de réduction Log TCID50/ml [18]: > 6,9 Log TCID50/ml
Titre TCID 50/ml [18]: < 4 TCID 50/ml
réduction du pouvoir infectieux (solution à 0,5% de AVF1, 5 minutes): ≥ 6,9 log TCID50/ml
particules infectieuses VIH-1 détectées (whatever the concentration (2%, 1%, 0,5%) and contact time (5, 30, 60 minutes)): Aucune particule infectieuse VIH-1 n'a été détectée
